According to ChEMBL document CHEMBL4321841, “Development of small molecule inhibitors targeting NLRP3 inflammasome pathway for inflammatory diseases” (Eur J Med Chem, 2020):

Experiments:
[1] = target: T1, NACHT, LRR and PYD domains-containing protein 3 (Homo sapiens, UniProt Q96P20); experiment: Inhibition of NLRP3 inflammasome activation in PMA differentiated human THP1 cells assessed as reduction in IL-1beta level at 10 uM preincubated for 30 mins followed by addition of MSU and meaured after 6 hrs by ELISA method relative to control
[2] = target: T1, NACHT, LRR and PYD domains-containing protein 3; experiment: Inhibition of NLRP3 inflammasome activation in PMA differentiated human THP1 cells assessed as reduction in IL-1beta level preincubated for 30 mins followed by addition of MSU and meaured after 6 hrs by ELISA method relative to control
THP-1 [3] = experiment: Inhibition of pyroptosis in PMA-differentiated and LPS-primed human THP1 cells assessed as LDH activity preincubated for 1 hr followed by addition of ATP and measured after 1 hr by CytoTox 96 Non-Radioactive Cytotoxicity Assay; type: functional, cell-based
[4] = target: T1, NACHT, LRR and PYD domains-containing protein 3; experiment: Inhibition of recombinant human NLRP3 ATPase assessed as reduction in ADP formation preincubated for 10 mins followed by ATP addition and measured after 40 mins by ADP-Glo assay
THP-1 [5] = experiment: Inhibition of pyroptosis in PMA-differentiated and LPSprimed human THP1 cells assessed as LDH activity at 10 uM preincubated for 1 hr followed by addition of ATP and measured after 1 hr by CytoTox 96 Non-Radioactive Cytotoxicity Assay relative to control; type: functional
[6] = target: T2, NACHT, LRR and PYD domains-containing protein 3 (Mus musculus, UniProt Q8R4B8); experiment: Inhibition of NLRP3 inflammasome activation in LPS-primed mouse J774A.1 cells assessed as reduction in IL-1beta level preincubated for 1 hr followed by addition of ATP and measured after 30 mins by ELISA method
[7] = target: T1, NACHT, LRR and PYD domains-containing protein 3; experiment: Inhibition of NLRP3 inflammasome activation in LPS-primed human THP1 cells assessed as reduction in IL-1beta level preincubated for 1 hr followed by addition of ATP and measured after 1 hr by ELISA method
[8] = target: T2, NACHT, LRR and PYD domains-containing protein 3; experiment: Inhibition of NLRP3 inflammasome activation in LPS-primed C57BL/6 mouse bone marrow derived macrophages preincubated for 15 mins followed by addition of ATP and measured after 1 hr by ELISA
[9] = target: T2, NACHT, LRR and PYD domains-containing protein 3; experiment: Inhibition of NLRP3 inflammasome activation in mouse J774A.1 cells assessed as reduction in IL-1beta level preincubated for 2 hrs followed by LPS-stimulation and further incubated for 5.5 hrs and subsequently ATP addition and measured after 30 mins by ELISA method; type: cell-based
Peroxiredoxin-1 = target: T3, Peroxiredoxin-1 (Homo sapiens, UniProt Q06830); experiment: Inhibition of PRDX1 in human PMA-differentiated LPS-stimulated THP1 cells assessed as reduction in NLRP3 inflammasome activation preincubated for 1 hr followed by addition of ATP and mesured after 1 hr by ELISA
T3 sequence (Q06830 whole entry): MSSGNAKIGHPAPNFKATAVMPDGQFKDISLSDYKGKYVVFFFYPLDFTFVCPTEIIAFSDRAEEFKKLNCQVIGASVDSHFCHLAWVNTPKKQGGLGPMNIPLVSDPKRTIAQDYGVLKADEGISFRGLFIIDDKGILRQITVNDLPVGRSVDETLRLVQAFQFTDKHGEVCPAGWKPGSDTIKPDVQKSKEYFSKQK

[10] = target: T1, NACHT, LRR and PYD domains-containing protein 3; experiment: Inhibition of NLRP3 inflammasome activation in LPS-stimulated human THP1 cells assessed as reduction in IL-1beta level at 10 uM preincubated for 1 hr followed by addition of ATP and measured after 1 hr by ELISA method relative to control
[11] = Half life in C57BL/6 mouse plasma at 3 mg/kg, iv or 20 mg/kg, po; type: ADME, organism-based; settings: in vivo
[12] = Cmax in mouse at 1000 mg, po administered once daily for 8 days; type: ADME, organism-based; set-up: dose 1000 mg, route oral; settings: in vivo
[13] = target: T2, NACHT, LRR and PYD domains-containing protein 3; experiment: Inhibition of NLRP3 inflammasome activation in LPS-primed mouse J774A.1 cells assessed as reduction in IL-1beta level preincubated for 30 mins followed by addition of nigericin and measured after 40 mins by ELISA
[14] = target: T2, NACHT, LRR and PYD domains-containing protein 3; experiment: Inhibition of NLRP3 inflammasome activation in LPS-primed mouse NG5 cells assessed as reduction in IL-1beta level incubated for 15followed by addition of ATP by ELISA method; type: cell-based
[15] = target: T2, NACHT, LRR and PYD domains-containing protein 3; experiment: Inhibition of NLRP3 inflammasome activation in LPS-primed mouse bone marrow derived macrophages assessed as reduction in IL-1beta level preincubated for 30 mins followed by addition of ATP and measured after 1 hr by ELISA method
[16] = target: T1, NACHT, LRR and PYD domains-containing protein 3; experiment: Inhibition of NLRP3 inflammasome activation in LPS-primed human THP1 cells assessed as reduction in IL-1beta level at 20 uM preincubated for 1 hr followed by addition of ATP and measured after 3 hrs by ELISA method relative to control
[17] = target: NACHT, LRR and PYD domains-containing protein 3 (Mus musculus) (UniProt Q8R4B8); experiment: Inhibition of NLRP3 inflammasome activation in LPS-primed mouse J774A.1 cells assessed as reduction in IL-1beta level at 10 uM preincubated for 1 hr followed by addition of ATP and measured after 30 mins by ELISA method relative to control
[18] = target: T2, NACHT, LRR and PYD domains-containing protein 3; experiment: Inhibition of NLRP3 inflammasome activation in LPS-primed mouse bone marrow derived macrophages incubated for 1 hr followed by addition of ATP and measured after 1 hr by immunoblotting analysis

T2 sequence (Q8R4B8 whole entry, the tested form may be a part): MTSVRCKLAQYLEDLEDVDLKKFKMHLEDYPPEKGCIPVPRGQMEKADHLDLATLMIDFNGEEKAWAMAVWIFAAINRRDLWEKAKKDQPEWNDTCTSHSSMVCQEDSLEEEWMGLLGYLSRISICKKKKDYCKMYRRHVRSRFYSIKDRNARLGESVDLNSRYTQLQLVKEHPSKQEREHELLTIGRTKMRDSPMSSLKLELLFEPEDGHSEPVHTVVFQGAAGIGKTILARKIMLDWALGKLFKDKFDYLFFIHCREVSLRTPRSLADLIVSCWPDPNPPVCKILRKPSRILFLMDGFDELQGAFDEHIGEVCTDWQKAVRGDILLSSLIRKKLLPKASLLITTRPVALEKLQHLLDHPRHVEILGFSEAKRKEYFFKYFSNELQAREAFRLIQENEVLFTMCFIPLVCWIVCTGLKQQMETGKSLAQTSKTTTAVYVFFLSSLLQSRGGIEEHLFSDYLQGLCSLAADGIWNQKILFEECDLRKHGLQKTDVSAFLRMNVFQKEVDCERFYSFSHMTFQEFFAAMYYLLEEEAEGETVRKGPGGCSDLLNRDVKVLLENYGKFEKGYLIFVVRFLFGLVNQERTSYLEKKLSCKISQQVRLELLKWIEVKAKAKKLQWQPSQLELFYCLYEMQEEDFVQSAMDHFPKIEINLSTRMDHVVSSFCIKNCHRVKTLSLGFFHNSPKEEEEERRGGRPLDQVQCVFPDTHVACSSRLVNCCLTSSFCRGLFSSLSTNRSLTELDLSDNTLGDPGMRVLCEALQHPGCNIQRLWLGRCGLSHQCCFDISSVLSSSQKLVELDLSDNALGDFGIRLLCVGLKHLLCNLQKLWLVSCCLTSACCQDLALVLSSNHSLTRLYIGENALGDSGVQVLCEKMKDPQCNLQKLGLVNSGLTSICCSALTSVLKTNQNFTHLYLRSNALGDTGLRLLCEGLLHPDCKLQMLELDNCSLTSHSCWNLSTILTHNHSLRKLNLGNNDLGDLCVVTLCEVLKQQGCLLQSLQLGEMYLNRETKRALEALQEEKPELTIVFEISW
T1 sequence (Q96P20 whole entry, the tested form may be a part): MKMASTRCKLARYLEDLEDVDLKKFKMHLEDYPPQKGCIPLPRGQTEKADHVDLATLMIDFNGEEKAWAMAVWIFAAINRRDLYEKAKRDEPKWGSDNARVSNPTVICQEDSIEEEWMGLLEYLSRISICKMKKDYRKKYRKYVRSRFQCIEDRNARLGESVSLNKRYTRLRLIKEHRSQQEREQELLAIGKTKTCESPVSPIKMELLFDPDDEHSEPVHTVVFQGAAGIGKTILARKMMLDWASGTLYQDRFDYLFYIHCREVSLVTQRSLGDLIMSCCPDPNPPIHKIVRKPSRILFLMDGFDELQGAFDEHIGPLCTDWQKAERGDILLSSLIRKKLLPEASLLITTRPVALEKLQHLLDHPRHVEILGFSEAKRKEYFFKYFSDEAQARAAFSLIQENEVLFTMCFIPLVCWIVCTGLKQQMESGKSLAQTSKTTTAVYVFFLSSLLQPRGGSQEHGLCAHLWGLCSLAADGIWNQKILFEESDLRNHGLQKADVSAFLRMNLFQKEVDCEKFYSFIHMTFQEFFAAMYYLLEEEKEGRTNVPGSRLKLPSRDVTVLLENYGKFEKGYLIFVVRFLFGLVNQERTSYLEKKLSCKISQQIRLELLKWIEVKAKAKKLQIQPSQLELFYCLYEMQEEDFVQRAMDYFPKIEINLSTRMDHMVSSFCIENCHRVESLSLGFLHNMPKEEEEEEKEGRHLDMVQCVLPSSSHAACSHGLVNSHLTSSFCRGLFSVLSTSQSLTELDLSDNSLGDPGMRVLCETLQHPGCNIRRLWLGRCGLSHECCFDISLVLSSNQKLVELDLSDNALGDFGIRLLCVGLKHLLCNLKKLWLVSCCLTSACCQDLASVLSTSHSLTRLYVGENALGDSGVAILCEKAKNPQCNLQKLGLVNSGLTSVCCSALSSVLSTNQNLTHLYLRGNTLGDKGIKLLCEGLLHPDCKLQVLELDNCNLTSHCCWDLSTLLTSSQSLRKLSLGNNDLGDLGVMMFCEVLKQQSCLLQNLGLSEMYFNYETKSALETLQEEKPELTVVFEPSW
Chain of NACHT, LRR and PYD domains-containing protein 3 (Mus musculus) (Q8R4B8 whole entry, the tested form may be a part): as the sequence (Q8R4B8 whole entry, the tested form may be a part) above

Compound `O=c1cc(-c2ccc(O)cc2)oc2cc(O)cc(O)c12` [APIGENIN] has an inhibition [1] of 42.9% and an IC50 [2] of 10 µM.

For `C=C(Cc1ccccc1Cl)C(=O)NCCc1ccc(S(N)(=O)=O)cc1`, the IC50 (THP-1 [3]) was 23.2 µM, the IC50 [4] was 74 µM and the inhibition at 10 µM (THP-1 [5]) was 45.8%.

With `O=c1[nH]c(-c2ccc([N+](=O)[O-])cc2)nc2ccccc12` the IC50 [6] was 5 µM.

Work on `CCn1c(-c2ccccc2)nc2cc(C)ccc21` yielded an IC50 [7] of 10 µM.

For `Cc1cccc(Nc2ccccc2C(=O)O)c1C` [MEFENAMIC ACID], the IC50 [8] was 25 µM.

With `COc1ccc(Cl)cc1C(=O)NCCc1ccc(S(=O)(=O)NO)cc1` the IC50 [9] was 8.45 µM.

In the case of `O=C1/C(=C/c2ccccn2)CNC/C1=C\c1ccccn1`, the IC50 (Peroxiredoxin-1) is reported as 0.95 µM.

For `O=[N+]([O-])c1ccc2[nH]c(-c3cscn3)nc2c1`, the inhibition [10] was 30%.

Work on `O=c1cc(-c2ccc(Cl)c(Cl)c2)oc2ccccc12` yielded an inhibition [1] of 49.5%.

Work on `CC(C)(O)c1coc(S(=O)(=O)NC(=O)Nc2c3c(cc4c2CCC4)CCC3)c1` yielded a t1/2 [11] of 3.27 h.

`CS(=O)(=O)CCC#N` [DAPANSUTRILE] showed a Cmax [12] of 311 µM and an IC50 [13] of 0.001 µM.

Work on `Cc1ccc(S(=O)(=O)/C=C/C#N)cc1` yielded an IC50 [14] of 12 µM.

Work on `CCC1=C(C)CN(C(=O)NCCc2ccc(S(=O)(=O)NC(=O)Nc3c4c(cc5c3CCC5)CCC4)cc2)C1=O` yielded an IC50 [15] of 0.042 µM.

Compound `CCCCCCC/C=C/C(=O)CCc1ccc(O)c(OC)c1` has an inhibition [16] of 60.3%.

`COc1ccc(-c2nc(O)c3ccccc3n2)cc1` showed an inhibition [17] of 28.8%.

Work on `c1cc2[nH]c(-c3cscn3)nc2cn1` yielded an inhibition [10] of 30%.

`CCCCC/C=C/C(=O)CCc1ccc(O)c(OC)c1` gave an inhibition [16] of 100%.

Compound `CC1CC(=O)c2s/c(=N\C3CCCCC3)oc2C1` (centres undefined) has an IC50 [18] of 1.28 µM.

With `O=c1[nH]c(-c2ccc(C(F)(F)F)cc2)nc2ccccc12` the inhibition [17] was 21.3%.

With `COc1ccc2c(c1)C(=O)N(c1ccccc1)C2=O` the IC50 [6] was 5 µM.
